According to patent US10934303B2, “Aryl ethene derivative and pharmaceutical composition containing same as active ingredient” (priority 2016, dated 2021):
Read-outs that look alike come from different tables or passages of the source.

Key:
ERRβ = ERRβ (Homo sapiens, UniProt O95718); settings: TR-FRET, PGC1a coactivator; read-out: Binding Assay, IC50 ERRβ
Description: (§2) The arylethene derivative of the present invention was sequentially added to a 384 well plate from a concentration of 10 μM to a final concentration of two-fold dilution. […] After all reagents were added, a reaction was carried out with gentle shaking at 20° C. for 1 hour, and after the reaction, a binding activity was measured by a TR-FRET method.

GST-bound ERR alpha LBD = GST-bound ERR alpha LBD (Homo sapiens (Human), UniProt P11474); settings: TR-FRET, PGC1a coactivator; read-out: Binding Assay, IC50 ERRα
GST-bound ERR alpha LBD, sequence (P11474 193-421): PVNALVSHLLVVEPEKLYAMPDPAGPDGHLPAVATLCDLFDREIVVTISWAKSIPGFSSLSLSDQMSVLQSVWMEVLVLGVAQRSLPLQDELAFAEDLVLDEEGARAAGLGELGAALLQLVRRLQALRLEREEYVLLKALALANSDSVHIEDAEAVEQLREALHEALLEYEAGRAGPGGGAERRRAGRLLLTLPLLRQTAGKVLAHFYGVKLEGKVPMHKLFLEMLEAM
Description: as §2

[1] = 1 μM, 30 minutes, 37° C., NADPH
Description: 2) Microsomal Stability Evaluation
(§3) Four liver microsomes (Human, Dog, Rat, Mouse 0.5 mg/ml) with a 0.1 M phosphate buffer solution (pH 7.4), and the arylethene derivative of the present invention were added to a concentration of 1 μM, culturing was performed at 37° C. for 5 minutes in advance, a NADPH regeneration system solution was added thereto, and culturing was performed at 37° C. for 30 minutes. Thereafter, in order to complete the reaction, an acetonitrile solution containing an internal standard material (chlorpropamide) was added thereto, centrifugation (14,000 rpm, 4° C.) was performed for 5 minutes, and a supernatant was injected into a LC-MS/MS system to analyze the substrate drug, thereby evaluating metabolism stability to the arylethene derivative of the present invention.

in vitro = in vitro ADME; settings: PBS pH 7.4, 25° C., 5 hours
[2] = 1 μM, 30 minutes, 37° C., NADPH; remark: listed apart in the source
Description: 2) Microsomal Stability Evaluation
as §3

[3] = 1 μM, 30 minutes, 37° C., NADPH; remark: listed apart in the source
Description: 2) Microsomal Stability Evaluation
as §3

[4] = target: GST-bound ER alpha ligand-binding domain (LBD) (Homo sapiens (Human), UniProt P03372); assay: biochemical
GST-bound ER alpha ligand-binding domain (LBD), sequence (P03372 whole entry, looked up, the tested form may be a part): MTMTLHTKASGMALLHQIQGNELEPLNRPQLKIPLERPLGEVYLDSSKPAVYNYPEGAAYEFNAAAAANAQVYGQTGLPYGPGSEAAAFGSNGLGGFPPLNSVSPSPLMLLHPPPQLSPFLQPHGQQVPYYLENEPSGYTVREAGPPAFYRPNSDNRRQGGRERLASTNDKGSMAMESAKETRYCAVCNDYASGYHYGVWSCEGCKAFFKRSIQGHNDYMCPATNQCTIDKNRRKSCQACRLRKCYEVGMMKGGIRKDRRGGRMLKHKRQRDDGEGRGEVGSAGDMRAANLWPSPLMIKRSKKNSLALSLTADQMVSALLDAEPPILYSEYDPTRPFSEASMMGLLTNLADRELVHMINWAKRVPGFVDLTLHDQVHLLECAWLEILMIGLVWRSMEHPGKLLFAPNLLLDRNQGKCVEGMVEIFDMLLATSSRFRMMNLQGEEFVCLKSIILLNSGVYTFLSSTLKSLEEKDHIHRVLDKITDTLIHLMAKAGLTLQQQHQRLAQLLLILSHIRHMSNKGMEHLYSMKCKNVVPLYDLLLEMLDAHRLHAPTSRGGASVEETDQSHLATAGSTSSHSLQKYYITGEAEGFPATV
Description: as §2

ERRγ = format: cell-based
[5] = 1 μM, 30 minutes, 37° C., NADPH; remark: listed apart in the source
CYP2C19 = CYP2C19 (Homo sapiens (Human), UniProt P33261); assay: Cytochrome P450 activity inhibition, CYP2C19; format: in vitro ADME; settings: 10 μM, human liver microsomes, S-mephenytoin substrate
CYP2C19, sequence (P33261 whole entry): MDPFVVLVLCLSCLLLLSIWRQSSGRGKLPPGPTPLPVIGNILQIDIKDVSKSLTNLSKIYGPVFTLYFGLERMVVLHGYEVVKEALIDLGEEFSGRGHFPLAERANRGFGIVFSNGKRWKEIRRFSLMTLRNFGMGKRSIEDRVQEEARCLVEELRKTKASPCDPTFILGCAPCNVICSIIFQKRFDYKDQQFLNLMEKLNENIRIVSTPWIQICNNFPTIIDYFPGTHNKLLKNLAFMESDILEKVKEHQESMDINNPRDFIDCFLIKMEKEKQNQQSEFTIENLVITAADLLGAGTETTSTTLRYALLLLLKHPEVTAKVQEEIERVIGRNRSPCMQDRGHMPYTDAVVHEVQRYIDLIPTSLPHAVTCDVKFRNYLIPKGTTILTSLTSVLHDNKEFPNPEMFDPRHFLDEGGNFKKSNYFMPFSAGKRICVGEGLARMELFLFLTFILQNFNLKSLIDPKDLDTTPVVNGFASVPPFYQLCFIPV
Excerpt: (§1) 1) Cytochrome P450 (CYP450) Activity Inhibition Evaluation

hERG channel = hERG channel (Homo sapiens (Human), UniProt Q12809); settings: read-out: hERG IC50; fluorescence polarization assay
CYP2C9 = CYP2C9 (Homo sapiens (Human), UniProt P11712); assay: Cytochrome P450 activity inhibition, CYP2C9; format: in vitro ADME; settings: 10 μM, human liver microsomes, Diclofenac substrate
CYP2C9, sequence (P11712 whole entry): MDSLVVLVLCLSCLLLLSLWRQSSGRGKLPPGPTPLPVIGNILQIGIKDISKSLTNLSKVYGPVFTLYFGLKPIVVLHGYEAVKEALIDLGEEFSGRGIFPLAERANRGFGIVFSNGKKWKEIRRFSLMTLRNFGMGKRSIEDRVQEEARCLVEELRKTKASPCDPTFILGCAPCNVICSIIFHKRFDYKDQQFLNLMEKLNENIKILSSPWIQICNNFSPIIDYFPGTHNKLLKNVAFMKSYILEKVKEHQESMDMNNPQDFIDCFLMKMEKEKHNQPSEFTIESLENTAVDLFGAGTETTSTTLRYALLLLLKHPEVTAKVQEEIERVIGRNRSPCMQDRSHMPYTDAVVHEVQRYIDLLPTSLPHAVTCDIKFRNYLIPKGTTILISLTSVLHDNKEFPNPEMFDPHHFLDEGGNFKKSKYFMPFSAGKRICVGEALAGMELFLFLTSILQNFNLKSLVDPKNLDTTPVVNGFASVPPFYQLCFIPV
Excerpt: as §1

CYP2D6 = CYP2D6 (Homo sapiens (Human), UniProt P10635); assay: Cytochrome P450 activity inhibition, CYP2D6; format: in vitro ADME; settings: 10 μM, human liver microsomes, Dextromethorphan substrate
CYP2D6, sequence (P10635 whole entry): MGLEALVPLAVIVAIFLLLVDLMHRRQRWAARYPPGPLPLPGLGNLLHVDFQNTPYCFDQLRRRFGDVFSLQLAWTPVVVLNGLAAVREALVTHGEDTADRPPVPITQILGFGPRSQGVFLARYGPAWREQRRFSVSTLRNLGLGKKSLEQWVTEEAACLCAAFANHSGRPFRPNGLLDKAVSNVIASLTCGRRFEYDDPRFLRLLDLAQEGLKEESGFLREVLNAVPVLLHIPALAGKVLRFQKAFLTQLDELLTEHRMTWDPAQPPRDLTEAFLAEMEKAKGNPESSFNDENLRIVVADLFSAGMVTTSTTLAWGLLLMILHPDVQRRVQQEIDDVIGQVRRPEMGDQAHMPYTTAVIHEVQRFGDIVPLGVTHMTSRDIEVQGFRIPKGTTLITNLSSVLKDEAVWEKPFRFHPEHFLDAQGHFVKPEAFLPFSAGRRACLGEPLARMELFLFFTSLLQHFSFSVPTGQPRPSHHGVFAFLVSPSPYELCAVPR
Excerpt: as §1

CYP1A2 = CYP1A2 (Homo sapiens (Human), UniProt P05177); assay: Cytochrome P450 activity inhibition, CYP1A2; format: in vitro ADME; settings: 10 μM, human liver microsomes, Phenacetin substrate
CYP1A2, sequence (P05177 whole entry): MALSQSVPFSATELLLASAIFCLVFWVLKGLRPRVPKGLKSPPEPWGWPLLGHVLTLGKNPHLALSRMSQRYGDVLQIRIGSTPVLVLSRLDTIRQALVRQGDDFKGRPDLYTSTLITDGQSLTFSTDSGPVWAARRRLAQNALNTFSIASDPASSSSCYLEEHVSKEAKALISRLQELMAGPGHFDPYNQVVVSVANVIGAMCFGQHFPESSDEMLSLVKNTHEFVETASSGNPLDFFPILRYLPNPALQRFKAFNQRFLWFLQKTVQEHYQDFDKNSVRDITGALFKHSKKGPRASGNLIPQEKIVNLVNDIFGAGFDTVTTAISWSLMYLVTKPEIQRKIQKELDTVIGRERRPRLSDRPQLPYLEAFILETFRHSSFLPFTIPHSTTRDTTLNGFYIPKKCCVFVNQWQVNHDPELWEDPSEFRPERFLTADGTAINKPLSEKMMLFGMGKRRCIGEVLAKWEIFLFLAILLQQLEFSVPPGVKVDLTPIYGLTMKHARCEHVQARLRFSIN
Excerpt: as §1

CYP3A4 = CYP3A4 (Homo sapiens (Human), UniProt P08684); assay: Cytochrome P450 activity inhibition, CYP3A4; format: in vitro ADME; settings: 10 μM, human liver microsomes, Midazolam substrate
CYP3A4, sequence (P08684 whole entry): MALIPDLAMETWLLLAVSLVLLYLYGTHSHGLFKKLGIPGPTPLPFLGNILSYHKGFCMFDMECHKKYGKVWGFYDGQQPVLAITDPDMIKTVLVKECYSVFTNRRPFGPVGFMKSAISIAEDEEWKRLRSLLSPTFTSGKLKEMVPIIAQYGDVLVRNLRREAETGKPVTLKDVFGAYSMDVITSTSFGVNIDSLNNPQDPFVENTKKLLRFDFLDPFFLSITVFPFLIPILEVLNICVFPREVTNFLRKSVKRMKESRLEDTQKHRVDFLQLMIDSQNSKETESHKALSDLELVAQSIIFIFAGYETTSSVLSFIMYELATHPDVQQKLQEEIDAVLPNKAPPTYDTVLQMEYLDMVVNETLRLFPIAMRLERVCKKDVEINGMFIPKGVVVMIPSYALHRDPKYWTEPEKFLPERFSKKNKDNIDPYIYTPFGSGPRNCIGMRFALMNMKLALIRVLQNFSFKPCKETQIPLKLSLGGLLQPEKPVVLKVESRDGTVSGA
Excerpt: as §1

in vivo = format: in vivo; settings: rat
Description: An oral administration group fasts the day before.
Blood of each animal is collected at 0 hour.
Into a tail vein of an intravenous administration group (IV), a drug is injected at a dose of 1 mg/kg (syringe).
To an oral administration group (PO), a drug is orally administered at a dose of 10 mg/kg (oral zondec)
After administration, blood of the intravenous administration group was collected through a jugular vein 8 times at 0.08, 0.25, 0.5, 1, 2, 4, 6, and 8 hours. One collected blood amount is 400 to 500 ul.
After administration, blood of the oral administration group was collected through a jugular vein 6 times at 0.25, 0.5, 1, 4, 6 and 8 hours. One collected blood amount is 400 to 500 ul.
Supernatant plasma is collected by a centrifuge.
The supernatant plasma was injected into a LC-MS/MS system and the drug is analyzed.

[6] = target: GST-bound ERR gamma ligand-binding domain (LBD) (Homo sapiens (Human), UniProt P62508); assay: ERRγ binding assay (inverse agonist assay), TR-FRET; settings: TR-FRET, PGC1a coactivator; read-out: Binding Assay, IC50 ERRγ
GST-bound ERR gamma ligand-binding domain (LBD), sequence (P62508 233-457): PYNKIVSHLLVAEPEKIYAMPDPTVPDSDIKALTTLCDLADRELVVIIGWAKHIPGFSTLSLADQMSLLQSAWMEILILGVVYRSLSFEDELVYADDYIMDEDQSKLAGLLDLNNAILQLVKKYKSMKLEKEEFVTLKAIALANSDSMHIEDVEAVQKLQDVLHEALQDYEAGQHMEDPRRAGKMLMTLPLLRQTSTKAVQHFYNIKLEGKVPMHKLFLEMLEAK
Description: 1) ERRγ Binding Assay (Inverse Agonist Assay)
as §2

[7] = TR-FRET, beta-estradiol 4 nM as agonist, read-out: Binding Assay, IC50 ERα
[8] = activity relative to reference compound GSK5182, 10 μM

ERRβ, sequence (O95718 whole entry, looked up, the tested form may be a part): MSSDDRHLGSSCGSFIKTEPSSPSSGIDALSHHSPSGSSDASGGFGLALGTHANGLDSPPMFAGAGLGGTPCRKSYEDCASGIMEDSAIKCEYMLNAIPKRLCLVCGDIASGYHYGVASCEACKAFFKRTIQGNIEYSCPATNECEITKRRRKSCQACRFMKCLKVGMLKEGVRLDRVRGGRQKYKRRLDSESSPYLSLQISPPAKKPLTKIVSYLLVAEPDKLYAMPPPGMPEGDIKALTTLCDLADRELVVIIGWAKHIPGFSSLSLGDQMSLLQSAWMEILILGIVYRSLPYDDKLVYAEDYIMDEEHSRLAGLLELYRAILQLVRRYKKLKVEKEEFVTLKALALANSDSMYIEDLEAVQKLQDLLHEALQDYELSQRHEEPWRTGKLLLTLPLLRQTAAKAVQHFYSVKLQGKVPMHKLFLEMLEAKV

Compound | IC50 (GST-bound ERR alpha LBD) [µM] | MS(Microsomal Stability) (%) rat [1] [%] | Permeability Pampa (in vitro) | MS(Microsomal Stability) (%) mouse [3] [%] | IC50 [4, 7] [µM] | Functional Assay at 10 μM (% of control), Cpds (ERRγ; 10 μM, 24 hours, AD293) | Functional Assay, Cpds/Ref 5182 (ERRγ; [8]) | MS(Microsomal Stability) (%) human [5] [%] | IC50 (hERG channel) [µM] | further results
Cc1ccc(/C(=C(\CCCO)c2ccccc2)c2ccc(N3CCNCC3)cc2)cc1 [Compound 20b] | > 10 | 71.5 | 3.61 10^−6 cm/s | 28.8 | > 10 | 3.58 % of control | 0.88 | 44 | – | IC50 (ERRβ): 2.1 µM; MS(Microsomal Stability) (%) dog [2]: 58%
Cc1ccc(/C(=C(\CCCO)c2ccccc2)c2ccc(N3CCN(C(C)C)CC3)cc2)cc1 [Compound 18b] | > 10 | 40.0 | 2.09 10^−6 cm/s | 19.7 | > 10 | 2.45 % of control | 0.78 | 54.2 | > 30 | CYP inhibition (% of control) 2C19 (CYP2C19): 69.7 % of control; CYP inhibition (% of control) 2C9 (CYP2C9): 73.4 % of control; CYP inhibition (% of control) 2D6 (CYP2D6): 68.9 % of control; CYP inhibition (% of control) 1A2 (CYP1A2): 89.8 % of control; CYP inhibition (% of control) 3A4 (CYP3A4): 53 % of control; AUCINF (in vivo; IV, 1 mg/kg): 0.64 μMh; AUCall (in vivo; IV, 1 mg/kg): 0.58 μMh; Vss (in vivo; IV, 1 mg/kg): 9.8 L/kg; t1/2 (in vivo; IV, 1 mg/kg): 3.1 h; AUCINF (in vivo; PO, 10 mg/kg): 0.36 μMh; AUCall (in vivo; PO, 10 mg/kg): 0.31 μMh; BA (in vivo; PO, 10 mg/kg): 8.7%; Tmax (in vivo; PO, 10 mg/kg): 0.6 h; Cmax (in vivo; PO, 10 mg/kg, read-out: Cmax): 120 nM
CN1CCC[C@H]1COc1ccc(/C(=C(/CCCO)c2ccccc2)c2ccc(O)cc2)cc1 [Compound 6h] | – | – | – | – | – | – | – | – | 18 | IC50 [4]: 1.1 µM; Functional Assay at 10 μM (% of control), Cpds (ERRγ): 5.49 % of control; Functional Assay, Cpds/Ref 5182 (ERRγ): 1.78
OCCC/C(=C(\c1ccc(O)cc1)c1ccc(N2CCN(C3CCCC3)CC2)cc1)c1ccccc1 [Compound 22n] | – | 47.8 | – | 37.8 | – | 3.47 % of control | 1.28 | 56.3 | 14.6 | CYP inhibition (% of control) 2C19 (CYP2C19): 83 % of control; CYP inhibition (% of control) 2C9 (CYP2C9): 97.4 % of control; MS(Microsomal Stability) (%) dog [2]: 72.0%; CYP inhibition (% of control) 2D6 (CYP2D6): 82.6 % of control; CYP inhibition (% of control) 1A2 (CYP1A2): 99 % of control; CYP inhibition (% of control) 3A4 (CYP3A4): 88.3 % of control
CN1CCCC1CCOc1ccc(/C(=C(/CCCO)c2ccccc2)c2ccc(O)cc2)cc1 (stereo not drawn) [Compound 6g] | > 10 | – | – | – | 0.331 | 4.94 % of control | 1.60 | – | 5.4 | IC50 [6]: 0.03 µM
OCCC/C(=C(\c1ccc(O)cc1)c1ccc(C2CCN(C3CC3)C2)cc1)c1ccccc1 (stereo not drawn) [Compound 22t] | > 10 | – | – | – | 5.94 | 6.19 % of control | – | – | – | IC50 (ERRβ): 3.56 µM
CCN1CCN(c2ccc(/C(=C(/CCCO)c3ccccc3)c3ccc(O)cc3)cc2)CC1 [Compound 18i] | > 10 | – | 1.16 10^−6 cm/s | – | 1.14 | 1.88 % of control | 0.97 | – | > 30 | IC50 [6]: 0.05 µM
